Data as given in patent US7091205B2, “Use of tetramethylpyrazine in the treatment of brain tumor” (priority 2004, dated 2006).

Columns and labels:
glioma cells = details: Ishiuchi et al., 2002; cited from earlier work
[1] = system: glioma cells implanted in frontal cortex of Sprague-Dawley rats; test: Survival time of rats implanted with glioma cells; type: in vivo, rat; details: 0.4 mg subcutaneous twice a day from the 8th day following implantation
Description: (§1) Sprague-Dawley (S.D.) rats obtained from the Animal Center of National Yang-Ming University were kept in the following conditions: 12 hours of artificial lightening per day; 22±2° C. air conditioning; sufficient water and food. Eight-week old female rats, weighing 250 to 300 g, were used in the experiments.
(§2) The rats were anesthetized with chloride hydrate (400 mg/Kg, i.p.) and immobilized on a stereotaxic apparatus (Narishige, Japan). The skin on the head was cut with scissors to expose the skull. Bregma was found as the reference point for the location of microinjection (three-dimensional orientation point: A: 0.7 mm, L; 2.0 mm, H: 2.0 mm). The location was marked with a pen, and the skull at the location was drilled with a drill. Glioma cells (10^6 cells) were injected (2 μl/3 mins; total 10 μl) into the frontal cortex of the left brain of the rats with a microinjector.
(§3) The rats were divided into two groups. […] The rats of the TMP group received TMP treatment (0.4 mg, subcutaneous injection, twice a day) from the 8th day following the implantation. The survival days of rats of the two groups were recorded.

[2] = system: glioma cells implanted in frontal cortex of Sprague-Dawley rats; test: Activity of glioma by micro positron emission tomography (18F-FDG); type: in vivo; details: 15th day following implantation; one rat; TMP from the 8th day; highly activated tumor still exists in control rat; FIG. 6 D to F
Description: as §1, §2, §3
To determine the activity of glioma cells in the rats, the activity profiles of the tumors were obtained by micro positron emission tomography (micro PET) on the 8th and 15th day following the implantation of glioma cells. […]

[3] = Pang et al., 1996; cited from earlier work
rat C6 glioma cell line [4] = test: Determination of cell death by propidium iodide fluorescence (flow cytometry); type: cell-based; details: 200 μM and 400 μM TMP, 24 hours; p<0.05 vs control; FIG. 1
Description: (§4) The rat C6 glioma cell line was purchased from the Food Industry Research and Development Institute, Taiwan. The cell culture within the tubes was transferred into a 15 ml centrifugation tube and centrifuged at 900 rpm for 3 minutes. Resulted supernatant was removed and 4 ml 10% FBS-DMEM was added to the centrifugation tube and sufficiently mixed with the cell pellet. The cells were counted and cultured in a 24-well plate (2×10^4 cells per well) for subsequent in vitro experiments.
(§5) The cultured C6 glioma cells were treated with TMP (Fluka, F-87915) at final concentrations of 50 μM, 100 μM, 200 μM, and 400 μM for 24 hours.
The degree of damage to glioma cells was measured as the intensity of propidium iodide (PI) fluorescence. PI is a fluorescent dye that binds DNA, with an excitation wavelength of 485 nm and an emission wavelength of 620 nm. When a cell is damaged, the permeability of the cell membrane is increased and PI can enter the cell to bind DNA.
The TMP-treated glioma cells were treated with 5 ng/ml PI (Molecular Probes, P-1304) for 1 hour, and then washed with 0.1 M PBS. The intensity of PI fluorescence was read by flow cytometry (FACSort).

neurons = details: through protecting mitochondria and inhibiting free radical generation; Shih et al, 2002; cited from earlier work
rat C6 glioma cell line [5] = test: Determination of cell cycle (PI staining, flow cytometry); type: cell-based; details: 400 μM TMP, 24 hours; p<0.05 vs control; FIG. 3
Description: as §4, §5
The TMP-treated glioma cells were treated with trypsin/EDTA (Biochrom AG, L-2153), shaken off, collected in a 15 ml centrifugation tube, and centrifuged at 900 rpm for 3 minutes. The resulting supematant was removed and 1 ml PI solution (50 μg/ml PI, 0.1% sodium citrate, and 0.1% Triton X-100) was added. After one hour of dark incubation at room temperature, the intensity of PI fluorescence was read by flow cytometry (FACSort). In the G2/M phase, DNA has been replicated, and thus the intensity of PI fluorescence of cells in the G2/M phase should be two times of that of cells in the G1 phase.

rat C6 glioma cell line [6] = test: Determination of Ca2+ permeability (Fura-2 AM, glutamate-induced Ca2+ increase); type: cell-based; details: 50 μM to 400 μM TMP, 24 hours; 200 μM glutamate for 20 seconds; p<0.05 vs control; FIG. 2
Description: as §4, §5
The TMP-treated glioma cells were washed with running buffer for three times, put in a 5 μM Fura-2 AM solution for 30 minutes, and treated with 200 μM glutamate for 20 seconds. The change of Ca^2+ concentration within glioma cells was observed on a fluorescence microscope (IX-70, Olympus, Japan).

[7] = Tsai and Liang, 2001; cited from earlier work

| Compound | proliferation of glioma cells (glioma cells) | survival time following implantation, half of the rats of the TMP group ([1]; FIG. 4(B)) | survival time following implantation, all rats of the TMP group ([1]; control rats died after 15 to 22 days, FIG. 4) | micro PET image of tumor activity [2] | increase of the concentration of calcium [3] | damage to glioma cells (intensity of PI fluorescence) (rat C6 glioma cell line [4]) | excitotoxicity to neurons induced by kainite (neurons) | ratio of cells in the G2/M phase (rat C6 glioma cell line [5]) | Ca2+ concentration within glioma cells resulting from treatment with glutamate (rat C6 glioma cell line [6]) | crossing of the blood-brain barrier [7] |
| --- | --- | --- | --- | --- | --- | --- | --- | --- | --- | --- |
| C[C@]12N[C@H](Cc3ccccc31)c1ccccc12 [MK801] | can effectively inhibit the proliferation of glioma cells |  |  |  |  |  |  |  |  |  |
| Cc1nc(C)c(C)nc1C [TMP, tetramethylpyrazine] |  | 40 days | at least 22 days | no image of a highly activated tumor | can inhibit the increase of the concentration of calcium | resulted in glioma cell death | can reduce the excitotoxicity to neurons induced by kainite | effectively reduced the ratio of cells in the G2/M phase | effectively reduced Ca^2+ concentration within glioma cells | can cross the blood-brain barrier |
